From the NIST ThermoML archive (doi:10.1016/j.jct.2008.01.020)

Test: mn = molality of the nth substance listed, in mol/kg
Conditions: 101 kPa, Liquid; for apparent molar heat capacity: Flow calorimetry

Nc1ncnc2c1ncn2[C@@H]1O[C@H](CO)[C@@H](O)[C@H]1O [β-adenosine] + O
Conditions	apparent molar heat capacity [J/K/mol]	mass density [kg/m3]
288.15 K, m1 = 0.01329	–	1000.4
288.15 K, m1 = 0.01395	–	1000.47
288.15 K, m1 = 0.01492	–	1000.56
288.15 K, m1 = 0.01614	–	1000.68
288.15 K, m1 = 0.01712	–	1000.77
288.15 K, m1 = 0.01799	–	1000.86
288.15 K, m1 = 0.01882	–	1000.94
288.15 K, m1 = 0.01892	–	1000.95
288.15 K, m1 = 0.01942	–	1001
298.15 K, m1 = 0.01501	–	998.486
298.15 K, m1 = 0.01599	483.2	998.58
298.15 K, m1 = 0.01704	488	998.686
298.15 K, m1 = 0.01799	487.4	998.767
298.15 K, m1 = 0.01899	491.7	998.864
298.15 K, m1 = 0.01941	486.7	998.902
298.15 K, m1 = 0.01999	489.8	998.965
298.15 K, m1 = 0.02098	488.4	999.055
298.15 K, m1 = 0.02171	489.9	999.129
298.15 K, m1 = 0.02196	487.5	999.151
303.15 K, m1 = 0.01329	–	996.913
303.15 K, m1 = 0.01395	–	996.975
303.15 K, m1 = 0.01501	–	997.076
303.15 K, m1 = 0.01546	–	997.117
303.15 K, m1 = 0.01614	–	997.185
303.15 K, m1 = 0.01712	–	997.271
303.15 K, m1 = 0.01799	–	997.354
303.15 K, m1 = 0.01892	–	997.445
303.15 K, m1 = 0.01903	–	997.455
303.15 K, m1 = 0.01942	–	997.495
313.15 K, m1 = 0.01297	–	993.43
313.15 K, m1 = 0.01346	–	993.47
313.15 K, m1 = 0.01395	–	993.522
313.15 K, m1 = 0.01501	–	993.616
313.15 K, m1 = 0.01598	–	993.707
313.15 K, m1 = 0.017	–	993.802
313.15 K, m1 = 0.01799	–	993.896
313.15 K, m1 = 0.01882	–	993.976
313.15 K, m1 = 0.01997	–	994.077
